Consider 4 compounds from paper PMC11911205 (Frontiers in Pharmacology, 2025).

On the set-up of data set [1]: method as in Indra et al., 2020. Particulars: ref Indra et al., 2020; cited from earlier work.
The nature of data set [2]: Pharmacokinetics of vandetanib and N-demethyl vandetanib in SD rats with or without luteolin (UPLC-MS/MS of plasma). It is filed as in vivo, Sprague-Dawley (SD) rats. Particulars: for AUC(0-t) / AUC(0-∞) / CLz/F / Cmax / Tmax / t1/2 / AUC(0-inf) / half-life / CL/F: plasma; for CL/F: read-out: CLz/F (converted). On the procedure: Male SD rats weighing 180–220 g were provided by the Laboratory Animal Center of the First Affiliated Hospital of Wenzhou Medical University (Zhejiang, China). They were housed under standard conditions with a temperature of 20°C–26°C, a relative humidity of 55% ± 15%, and a 12-h dark/light cycle. The rats had free access to water and no other drugs were given during the feeding period, and were prohibited from eating for 12 h before the experiment. The experimental procedures and protocols were in accordance with animal ethics standards and approved by the Institutional Animal Care and Use Committee of the First Affiliated Hospital of Wenzhou Medical University (Zhejiang, China).
Therefore, we adopted the same dosages to ensure the comparability and validity of the experimental results. 0.3 mL tail vein blood was collected at 0.5, 1, 1.5, 2, 3, 4, 6, 8, 12, 24, 48 and 80 h post-vandetanib administration. The blood samples were centrifuged at 4°C at 13,000 rpm for 10 min to obtain plasma, which was aspirated and stored at −80°C until analysis.

The target in data set [3] is vandetanib metabolism (N-demethyl vandetanib formation) in human liver microsomes (Homo sapiens, UniProt P08684). Briefly: Vandetanib metabolism (N-demethyl vandetanib formation) and its inhibition by luteolin in human liver microsomes. The following applies: pH 7.4. A general note: Liver microsomes are a subcellular fraction often used to study metabolism.
Method: (§1) Considering that RLM or HLM microsome may have different metabolic rates, we conducted experiments on enzyme and incubation time before the start of the experiment. […] A rate-time graph was created to select the most suitable concentration and incubation time within the linear range of variation. […] The drug was dissolved in DMSO.
(§2) The relationship between reaction rate and substrate concentration based on the Michaelis-Menten equation was calculated, and the Km value through nonlinear fitting was determined. […] The relationship between inhibitor concentration and reaction rate was plotted after the reaction rate at different inhibitor concentrations was determined, and then the IC50 value through nonlinear regression analysis was calculated. […] The above mixture was incubated at 37°C for 5 min, after which NADPH was added to start the reaction process for 30 min, and it was finally cooled to −80°C to stop the reaction. 400 μL of acetonitrile and 20 μL of IS working solution (200 ng/mL) were incorporated into the mixture. Following vortexed and centrifugated at 13,000 rpm for 10 min, the supernatant was obtained for UPLC-MS/MS analysis.
(§3) Km, IC50, Lineweaver-Burk plots and mean plasma concentration-time curves were generated using GraphPad Prism 9.5 software. […] SPSS (version 26.0; SPSS Inc., Chicago, IL, United States) was used for data processing, and t-test was employed to determine whether there was a significant difference.
Data set [4] deals with rat liver microsomes (RLM). Description: Vandetanib metabolism (N-demethyl vandetanib formation) and its inhibition by luteolin in rat liver microsomes. The following applies: RLM, Lineweaver-Burk plot.
Method: as §1, §2, §3
The subject of data set [5] is vandetanib metabolism (N-demethyl vandetanib formation) in rat liver microsomes. The data set is described as above. Particulars: rat, rat liver microsomes, pH 7.4, probe vandetanib at its Km value in RLM.
Method: as §1, §2, §3
The target in data set [6] is human liver microsomes (HLM) (Homo sapiens, UniProt P08684).
Method: as §1, §2, §3
On the set-up of data set [7]: method as in Martin et al., 2011. Particulars: ref Martin et al., 2011, cited from earlier work.
The nature of the next data set: in vitro. The following applies: rat, pH 7.4.
Setting [8] is: luteolin 30 mg/kg by gavage 30 min before vandetanib 25 mg/kg by gavage.
Setting [9] is: vandetanib 25 mg/kg by gavage alone (control group).
[10] abbreviates: inhibition of vandetanib metabolism.
Setting [11] is: luteolin 30 mg/kg + vandetanib 25 mg/kg vs vandetanib alone.
[12] abbreviates: male, Sprague-Dawley, rat, po, 25 mg/kg, luteolin 30 mg/kg by gavage 30 min before vandetanib 25 mg/kg by gavage.
The mark [13] stands for this setting: male, Sprague-Dawley, rat, po, 25 mg/kg, vandetanib 25 mg/kg by gavage alone (control group).

Where two headings read alike, the source gives them in different places.

Sequence of human liver microsomes (HLM) (P08684 2-503): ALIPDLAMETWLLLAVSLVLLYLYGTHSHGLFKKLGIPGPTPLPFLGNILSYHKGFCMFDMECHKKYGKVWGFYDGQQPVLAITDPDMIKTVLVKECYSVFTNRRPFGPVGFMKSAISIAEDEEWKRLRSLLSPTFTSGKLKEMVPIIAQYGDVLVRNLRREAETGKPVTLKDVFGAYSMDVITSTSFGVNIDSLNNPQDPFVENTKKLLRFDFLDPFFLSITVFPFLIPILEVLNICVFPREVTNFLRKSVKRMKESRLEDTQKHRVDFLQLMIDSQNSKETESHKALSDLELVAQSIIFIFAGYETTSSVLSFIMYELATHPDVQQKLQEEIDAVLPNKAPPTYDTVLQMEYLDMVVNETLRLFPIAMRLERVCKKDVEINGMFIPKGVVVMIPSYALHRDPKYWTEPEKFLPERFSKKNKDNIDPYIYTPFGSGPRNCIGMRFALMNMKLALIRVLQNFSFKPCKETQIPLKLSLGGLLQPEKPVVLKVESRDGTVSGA
Sequence of vandetanib metabolism (N-demethyl vandetanib formation) in human liver microsomes (P08684 2-503): as above
Method for in vitro: as §1, §2, §3

On to `COc1cc2c(Nc3ccc(Br)cc3F)ncnc2cc1OCC1CC[N+](C)([O-])CC1` (stereo not shown) [vandetanib N-oxide], for which the “less activity compared to the original compound (vandetanib)” value in data set [1] was “over 50 times”.
What is called AUC(0-t) is exposure summed from dosing to a finite time, without extrapolation to infinity. For orientation: Cmax means the peak of the concentration-time curve. As a reminder, the Tmax is the time from dosing to the highest level. In the case of `COc1cc2c(Nc3ccc(Br)cc3F)ncnc2cc1OCC1CCNCC1` [N-demethyl vandetanib], in data set [2] (setting [8]), the “AUC(0-t)” value turned out to be 998.82 ± 276.65 ng·h/mL, the “AUC(0-∞)” value was 1,118.64 ± 320.66 μg/L*h, the CLz/F amounted to 397.2 ± 108 mL/min/kg and the Cmax came out at 22.41 ± 5.84 ng/mL. For the same compound, in data set [2] (setting [8]), the Tmax was found to be 11.20 ± 1.79 h and the t1/2 amounted to 24.33 ± 5.63 h. In data set [2] (setting [9]), the “AUC(0-t)” value was 938.88 ± 144.07 ng·h/mL, the “AUC(0-∞)” value was 1,163.14 ± 157.34 μg/L*h, the CLz/F stood at 363.8 ± 51.7 mL/min/kg and the Cmax is 19.56 ± 3.03 ng/mL. Moreover, in data set [2] (setting [9]), the Tmax came out at 14.40 ± 5.37 h and the t1/2 amounted to 34.04 ± 15.69 h.
In general, IC50 refers to the concentration at which inhibition is half-maximal. A higher IC50 goes with lower potency. In general, Ki refers to a measure of affinity in units of concentration, obtained from inhibition or displacement. Read a low Ki as tighter binding. On to `O=c1cc(-c2ccc(O)c(O)c2)oc2cc(O)cc(O)c12` [Luteolin], for which the midpoint of inhibition in data set [3], the IC50 at 30 min, lay at 15.8 µM. The inhibition mechanism entry in data set [4] is “mixture of non-competitive inhibition and competitive inhibition”. In data set [4] (setting [10]), this compound displayed a Ki of 2.33 µM and a α of 6.68 µM. Moreover, the IC50 at 30 min in data set [5] worked out at 8.56 µM. Besides, in data set [6], the inhibition type result is “mixture of non-competitive and un-competitive”; the α turned out to be 0.28 µM.
In general, AUC(0-inf) refers to total exposure, with the tail of the curve extrapolated. A lower AUC(0-inf) goes with less exposure. The half-life is the time needed for the level to fall by half in the phase considered. A lower half-life goes with fast loss. The Km is the substrate concentration at which the rate is half of its maximum. With `COc1cc2c(Nc3ccc(Br)cc3F)ncnc2cc1OCC1CCN(C)CC1` [Vandetanib], the “levels of vandetanib exposure” value in data set [7] (combined with itraconazole, a potent CYP3A4 inhibitor) is given as “increased”. Further, in data set [7] (combined with rifampicin, a strong inducer of CYP3A4), the AUC of vandetanib entry is recorded as “significantly decreased”. The “increase of AUC(0-t) of vandetanib in luteolin group compared with the control group” value in data set [2] (setting [11]) is reported as 18.1%. Besides, the “increase of Cmax of vandetanib in luteolin group compared with the control group” value in data set [2] (setting [11]) stood at 32.8%. The AUC(0-inf) is 41100 ng·h/mL in data set [2] (setting [12]) and 36100 ng·h/mL in data set [2] (setting [13]). Also, the half-life was 23 ± 4.02 h in data set [2] (setting [12]) and 26.6 ± 4.35 h in data set [2] (setting [13]). Moreover, the AUC(0-t) in data set [2] (male, Sprague-Dawley, rat, po, 25 mg/kg, luteolin 30 mg/kg by gavage 30 min before vandetanib 25 mg/kg by gavage, read-out: AUC(0-t)) stood at 37100 ng·h/mL; in data set [2] (male, Sprague-Dawley, rat, po, 25 mg/kg, vandetanib 25 mg/kg by gavage alone (control group), read-out: AUC(0-t)), 31400 ng·h/mL. Moreover, the values for the CL/F in data set [2] (setting [12]) and in data set [2] (setting [13]) were 10.2 mL/min/kg and 11.7 mL/min/kg, respectively. The Cmax in data set [2] (male, Sprague-Dawley, rat, po, 25 mg/kg, luteolin 30 mg/kg by gavage 30 min before vandetanib 25 mg/kg by gavage, read-out: Cmax) worked out at 1140 ng/mL; in data set [2] (male, Sprague-Dawley, rat, po, 25 mg/kg, vandetanib 25 mg/kg by gavage alone (control group), read-out: Cmax) it was 859 ± 125 ng/mL. Besides, the Tmax in data set [2] (male, Sprague-Dawley, rat, po, 25 mg/kg, luteolin 30 mg/kg by gavage 30 min before vandetanib 25 mg/kg by gavage, read-out: Tmax) stood at 7.6 ± 2.61 h; in data set [2] (male, Sprague-Dawley, rat, po, 25 mg/kg, vandetanib 25 mg/kg by gavage alone (control group), read-out: Tmax) it was 8.8 ± 3.03 h. In the data set “in vitro”, the Km at 30 min turned out to be 9.41 µM.
